Experimental data from PubChem BioAssay AID248 (DTP/NCI, 2004).
Values joined by “and” are separate entries in the source; they are usually repeats but may differ in a detail not shown here. Equal values may be shown once. Toxic doses and inconclusive results are not listed.

Tested on: L1210 leukemia ip in BDF1 mice, survival T/C
Test: NCI In Vivo Anticancer Drug Screen. Data for tumor model L1210 Leukemia (intraperitoneal) in B6D2F1 (BDF1) mice
Details: endpoint: mean survival time, higher = longer survival
In short: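 Transplanted-tumor mice were given test agent; controls received vehicle only. Survival readings from the two groups were divided (treated over control).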

[1] = dose: 100.0 mg/kg/injection, schedule: Q04DX003 (ip), vehicle: saline
[2] = dose: 200.0 mg/kg/injection, schedule: Q04DX003 (ip), vehicle: saline
[3] = dose: 400.0 mg/kg/injection, schedule: Q04DX003 (ip), vehicle: saline
[4] = dose: 100.0 mg/kg/injection, schedule: Q01DX009 (ip), vehicle: saline
[5] = dose: 100.0 mg/kg/injection, schedule: Q04DX003 (ip), vehicle: Klucel (hydroxypropylcellulose) (HPC)
[6] = dose: 400.0 mg/kg/injection, schedule: Q01DX009 (ip), vehicle: saline
[7] = dose: 400.0 mg/kg/injection, schedule: Q04DX003 (ip), vehicle: Klucel (hydroxypropylcellulose) (HPC)
[8] = dose: 100.0 mg/kg/injection, schedule: Q01DX009 (ip), vehicle: saline with Tween-80
[9] = dose: 100.0 mg/kg/injection, schedule: Q01DX009 (ip), vehicle: Klucel (hydroxypropylcellulose) (HPC)
[10] = dose: 200.0 mg/kg/injection, schedule: Q01DX009 (ip), vehicle: Klucel (hydroxypropylcellulose) (HPC)
[11] = dose: 400.0 mg/kg/injection, schedule: Q01DX009 (ip), vehicle: Klucel (hydroxypropylcellulose) (HPC)
[12] = dose: 100.0 mg/kg/injection, schedule: Q01DX001 (ip), vehicle: saline
[13] = dose: 200.0 mg/kg/injection, schedule: Q01DX001 (ip), vehicle: saline
[14] = dose: 400.0 mg/kg/injection, schedule: Q01DX001 (ip), vehicle: saline
[15] = dose: 100.0 mg/kg/injection, schedule: Q04DX003 (ip), vehicle: saline with Tween-80
[16] = dose: 400.0 mg/kg/injection, schedule: Q04DX003 (ip), vehicle: saline with Tween-80
[17] = dose: 200.0 mg/kg/injection, schedule: Q04DX003 (ip), vehicle: saline with Tween-80

COc1cccc2c1C(=O)c1c(O)c3c(c(O)c1C2=O)C[C@@](O)(C(=O)COC(C)=O)C[C@@H]3OC1CC(N)C(O)C(C)O1 (stereo partly specified)
T/C (dose: 0.45 mg/kg/injection, schedule: Q04DX003 (ip), vehicle: saline): 120 % of control
T/C (dose: 0.7 mg/kg/injection, schedule: Q04DX003 (ip), vehicle: saline): 167 % of control
T/C (dose: 1.6 mg/kg/injection, schedule: Q04DX003 (ip), vehicle: saline): 111 % of control
T/C (dose: 2.4 mg/kg/injection, schedule: Q04DX003 (ip), vehicle: saline): 104 % of control

COC1CCCC[CH]1[Hg][Br] (stereo unspecified)
T/C (dose: 0.78 mg/kg/injection, schedule: Q01DX009 (ip), vehicle: saline with Tween-80): 90 % of control
T/C (dose: 1.56 mg/kg/injection, schedule: Q01DX009 (ip), vehicle: saline with Tween-80): 96 % of control
T/C (dose: 3.13 mg/kg/injection, schedule: Q01DX009 (ip), vehicle: saline with Tween-80): 96 % of control
T/C (dose: 12.5 mg/kg/injection, schedule: Q01DX009 (ip), vehicle: saline with Tween-80): 93 % of control

CSC(=S)NNC(=O)C1CCCCC1
T/C [1]: 106 % of control
T/C [2]: 98 % of control
T/C [3]: 104 % of control

COC1OC(CO)C(O)C(NC(=O)N(C)N=O)C1O (stereo unspecified)
T/C (dose: 12.5 mg/kg/injection, schedule: Q01DX009 (ip), vehicle: saline): 112 % of control
T/C (dose: 25.0 mg/kg/injection, schedule: Q04DX003 (ip), vehicle: saline): 106 % of control
T/C (dose: 44.0 mg/kg/injection, schedule: Q01DX009 (ip), vehicle: saline): 124 % of control
T/C (dose: 50.0 mg/kg/injection, schedule: Q01DX009 (ip), vehicle: saline): 181 % of control
T/C (dose: 50.0 mg/kg/injection, schedule: Q04DX003 (ip), vehicle: saline): 105 % of control
T/C (dose: 66.0 mg/kg/injection, schedule: Q04DX003 (ip), vehicle: saline): 100 % of control
T/C [4]: 103 % of control and 218 % of control
T/C [5]: 119 % of control
T/C [1]: 158 % of control
T/C (dose: 150.0 mg/kg/injection, schedule: Q04DX003 (ip), vehicle: saline): 105 % of control
T/C [2]: 166 % of control
T/C [6]: 100 % of control
T/C [7]: 171 % of control
T/C [3]: 100 % of control and 214 % of control

C[N+]1(C)C2CCCCC1CC(=O)C2
T/C (dose: 10.0 mg/kg/injection, schedule: Q01DX001 (ip), vehicle: saline): 96 % of control
T/C (dose: 20.0 mg/kg/injection, schedule: Q01DX001 (ip), vehicle: saline): 98 % of control
T/C (dose: 40.0 mg/kg/injection, schedule: Q01DX001 (ip), vehicle: saline): 95 % of control

O=C1C(=O)c2c3ccccc3cc3cccc1c23
T/C (dose: 50.0 mg/kg/injection, schedule: Q01DX009 (ip), vehicle: saline with Tween-80): 88 % of control
T/C [8]: 91 % of control

ClCc1ccccn1
T/C [4]: 92 % of control
T/C [1]: 98 % of control
T/C (dose: 200.0 mg/kg/injection, schedule: Q01DX009 (ip), vehicle: saline): 95 % of control
T/C [2]: 101 % of control
T/C [6]: 89 % of control
T/C [3]: 94 % of control

CCOC(=O)CC(=O)c1ccccc1F
T/C [9]: 97 % of control
T/C [5]: 102 % of control
T/C [10]: 103 % of control
T/C (dose: 200.0 mg/kg/injection, schedule: Q04DX003 (ip), vehicle: Klucel (hydroxypropylcellulose) (HPC)): 103 % of control
T/C [11]: 93 % of control
T/C [7]: 100 % of control

CC(=O)OC1COC(Cl)C(OC(C)=O)C1OC(C)=O (stereo unspecified)
T/C (dose: 100.0 mg/kg/injection, schedule: Q01DX001 (sc), vehicle: olive oil, sesame oil, peanut oil): 103 % of control
T/C (dose: 200.0 mg/kg/injection, schedule: Q01DX001 (sc), vehicle: olive oil, sesame oil, peanut oil): 97 % of control
T/C (dose: 400.0 mg/kg/injection, schedule: Q01DX001 (sc), vehicle: olive oil, sesame oil, peanut oil): 97 % of control

CC1Cc2c(ccc3ccccc23)C1=O (stereo unspecified)
T/C [12]: 98 % of control
T/C [1]: 94 % of control
T/C [13]: 97 % of control
T/C [2]: 94 % of control
T/C [14]: 101 % of control
T/C [3]: 95 % of control

CC(=O)OC1CC2(Cl)CC1(Cl)C(Cl)=C2Cl (stereo unspecified)
T/C (dose: 50.0 mg/kg/injection, schedule: Q04DX003 (ip), vehicle: saline with Tween-80): 105 % of control
T/C (dose: 100.0 mg/kg/injection, schedule: Q01DX001 (ip), vehicle: other): 109 % of control
T/C [15]: 106 % of control
T/C (dose: 200.0 mg/kg/injection, schedule: Q01DX001 (ip), vehicle: other): 100 % of control
T/C (dose: 400.0 mg/kg/injection, schedule: Q01DX001 (ip), vehicle: other): 109 % of control
T/C [16]: 103 % of control

O=P1(Cc2ccccc2)CCC(O)=C1c1ccccc1 (stereo unspecified)
T/C [15]: 94 % of control
T/C [17]: 102 % of control
T/C [16]: 91 % of control

CC(C)(C)N1OC2(CCCCC2)n2c(=O)c3ccccc3c(=O)n2C1c1ccccc1 (stereo unspecified)
T/C (dose: 100.0 mg/kg/injection, schedule: Q04DX002 (ip), vehicle: saline with Tween-80): 97 % of control
T/C (dose: 200.0 mg/kg/injection, schedule: Q04DX002 (ip), vehicle: saline with Tween-80): 90 % of control
T/C (dose: 400.0 mg/kg/injection, schedule: Q04DX002 (ip), vehicle: saline with Tween-80): 108 % of control

COC(=O)c1c(Cl)c(Cl)c(C(=O)OC)c(Cl)c1Cl
T/C [8]: 91 % of control
T/C [15]: 90 % of control
T/C (dose: 200.0 mg/kg/injection, schedule: Q01DX009 (ip), vehicle: saline with Tween-80): 92 % of control
T/C [17]: 90 % of control
T/C (dose: 400.0 mg/kg/injection, schedule: Q01DX009 (ip), vehicle: saline with Tween-80): 92 % of control
T/C [16]: 95 % of control

CC(=O)NC(O)C(Cl)(Cl)Cl (stereo unspecified)
T/C (dose: 100.0 mg/kg/injection, schedule: Q01DX009 (ip), vehicle: saline sonified): 102 % of control
T/C [15]: 100 % of control
T/C (dose: 200.0 mg/kg/injection, schedule: Q01DX009 (ip), vehicle: saline sonified): 95 % of control
T/C [17]: 96 % of control
T/C (dose: 400.0 mg/kg/injection, schedule: Q01DX009 (ip), vehicle: saline sonified): 93 % of control
T/C [16]: 110 % of control

COC1OC2COC(c3ccccc3)OC2C(OC)C1OC (stereo unspecified)
T/C (dose: 12.5 mg/kg/injection, schedule: Q04DX002 (ip), vehicle: Klucel (hydroxypropylcellulose) (HPC)): 100 % of control
T/C (dose: 25.0 mg/kg/injection, schedule: Q04DX002 (ip), vehicle: Klucel (hydroxypropylcellulose) (HPC)): 91 % of control
T/C (dose: 50.0 mg/kg/injection, schedule: Q04DX002 (ip), vehicle: Klucel (hydroxypropylcellulose) (HPC)): 103 % of control and 91 % of control
T/C (dose: 100.0 mg/kg/injection, schedule: Q04DX002 (ip), vehicle: Klucel (hydroxypropylcellulose) (HPC)): 108 % of control
T/C (dose: 200.0 mg/kg/injection, schedule: Q04DX002 (ip), vehicle: Klucel (hydroxypropylcellulose) (HPC)): 95 % of control

O=C(Nc1cccc2ncccc12)c1ccc(C(=O)Nc2cccc3ncccc23)cc1
T/C [12]: 101 % of control
T/C [13]: 93 % of control
T/C [14]: 91 % of control

COc1cc(OC)c(N=Cc2ccc3c(c2)OCO3)cc1Cl
T/C [9]: 91 % of control
T/C [10]: 98 % of control
T/C [11]: 96 % of control

[CH3][Sn]([CH3])([CH3])[O]C(=O)CCl
T/C (dose: 0.78 mg/kg/injection, schedule: Q01DX009 (ip), vehicle: Klucel (hydroxypropylcellulose) (HPC)): 97 % of control
T/C (dose: 0.78 mg/kg/injection, schedule: Q04DX002 (ip), vehicle: Klucel (hydroxypropylcellulose) (HPC)): 97 % of control
T/C (dose: 1.56 mg/kg/injection, schedule: Q01DX009 (ip), vehicle: Klucel (hydroxypropylcellulose) (HPC)): 87 % of control
T/C (dose: 1.56 mg/kg/injection, schedule: Q04DX002 (ip), vehicle: Klucel (hydroxypropylcellulose) (HPC)): 93 % of control
T/C (dose: 3.12 mg/kg/injection, schedule: Q04DX002 (ip), vehicle: Klucel (hydroxypropylcellulose) (HPC)): 93 % of control
